Measured values: ChEMBL document CHEMBL3407445, “Benzofuran-derived benzylpyridinium bromides as potent acetylcholinesterase inhibitors” (Eur J Med Chem, 2015)

Each compound was assayed against Acetylcholinesterase (Electrophorus electricus, UniProt O42275) (assay: Inhibition of electric eel AChE using acetylthiocholine substrate by Ellman's reagent based method).
Chain of Acetylcholinesterase (O42275 whole entry): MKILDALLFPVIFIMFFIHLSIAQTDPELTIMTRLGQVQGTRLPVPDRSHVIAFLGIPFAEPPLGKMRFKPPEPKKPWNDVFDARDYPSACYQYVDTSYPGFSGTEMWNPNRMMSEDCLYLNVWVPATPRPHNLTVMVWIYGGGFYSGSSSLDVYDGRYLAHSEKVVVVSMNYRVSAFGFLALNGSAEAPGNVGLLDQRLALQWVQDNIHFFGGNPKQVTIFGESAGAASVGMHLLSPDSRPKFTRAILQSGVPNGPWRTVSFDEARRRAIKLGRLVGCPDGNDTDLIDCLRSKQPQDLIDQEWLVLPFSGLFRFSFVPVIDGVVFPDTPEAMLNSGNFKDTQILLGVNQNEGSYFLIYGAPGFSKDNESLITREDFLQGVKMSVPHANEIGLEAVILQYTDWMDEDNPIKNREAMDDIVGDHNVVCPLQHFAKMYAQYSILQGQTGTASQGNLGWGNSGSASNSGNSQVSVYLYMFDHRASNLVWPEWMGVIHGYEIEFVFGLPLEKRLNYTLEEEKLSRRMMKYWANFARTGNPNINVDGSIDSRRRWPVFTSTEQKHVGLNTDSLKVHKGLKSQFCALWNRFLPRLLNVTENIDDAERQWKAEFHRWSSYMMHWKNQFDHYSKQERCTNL
`O=[N+]([O-])c1ccccc1C[n+]1ccc(-c2cc3ccccc3o2)cc1` showed an IC50 of 4.9 nM.
For `COc1cccc2cc(-c3cc[n+](Cc4cccc(F)c4)cc3)oc12`, the IC50 was 18.9 nM.
`COc1cccc2cc(-c3cc[n+](Cc4ccc(Br)cc4)cc3)oc12` showed an IC50 of 29.5 nM.
Compound `Brc1ccc2oc(-c3cc[n+](Cc4ccccc4)cc3)cc2c1` has an IC50 of 13.5 nM.
Work on `COc1cccc2cc(-c3cc[n+](Cc4ccccc4)cc3)oc12` yielded an IC50 of 26.5 nM.
Compound `Cc1ccccc1C[n+]1ccc(-c2cc3ccccc3o2)cc1` has an IC50 of 6.8 nM.
In the case of `COc1cccc2cc(-c3cc[n+](Cc4cccc(Br)c4)cc3)oc12`, the IC50 is reported as 22.4 nM.
Work on `COc1cccc2cc(-c3cc[n+](Cc4ccc([N+](=O)[O-])cc4)cc3)oc12` yielded an IC50 of 10.6 nM.
For `O=[N+]([O-])c1ccc(C[n+]2ccc(-c3cc4ccccc4o3)cc2)cc1`, the IC50 was 5.8 nM.
`O=[N+]([O-])c1ccc(C[n+]2ccc(-c3cc4cc(Br)ccc4o3)cc2)cc1` was tested, and the IC50 was 8.1 nM.
`Fc1cccc(C[n+]2ccc(-c3cc4cc(Br)ccc4o3)cc2)c1` was tested, and the IC50 was 9.6 nM.
With `Fc1ccc(C[n+]2ccc(-c3cc4cc(Br)ccc4o3)cc2)cc1` the IC50 was 8.7 nM.
`Cc1cc(C)cc(C[n+]2ccc(-c3cc4ccccc4o3)cc2)c1` showed an IC50 of 4.1 nM.
`Brc1ccc(C[n+]2ccc(-c3cc4cc(Br)ccc4o3)cc2)cc1` was tested, and the IC50 was 31.5 nM.
`Brc1ccc(C[n+]2ccc(-c3cc4ccccc4o3)cc2)cc1` showed an IC50 of 16 nM.

What follows are compounds tested against Acetylcholinesterase (Electrophorus electricus) (UniProt O42275) (assay: Potency index, ratio of IC50 for donepezil to IC50 for compound against electric eel AChE using acetylthiocholine substrate by Ellman's reagent based method).
Chain of Acetylcholinesterase (Electrophorus electricus) (O42275 24-633 limits assumed): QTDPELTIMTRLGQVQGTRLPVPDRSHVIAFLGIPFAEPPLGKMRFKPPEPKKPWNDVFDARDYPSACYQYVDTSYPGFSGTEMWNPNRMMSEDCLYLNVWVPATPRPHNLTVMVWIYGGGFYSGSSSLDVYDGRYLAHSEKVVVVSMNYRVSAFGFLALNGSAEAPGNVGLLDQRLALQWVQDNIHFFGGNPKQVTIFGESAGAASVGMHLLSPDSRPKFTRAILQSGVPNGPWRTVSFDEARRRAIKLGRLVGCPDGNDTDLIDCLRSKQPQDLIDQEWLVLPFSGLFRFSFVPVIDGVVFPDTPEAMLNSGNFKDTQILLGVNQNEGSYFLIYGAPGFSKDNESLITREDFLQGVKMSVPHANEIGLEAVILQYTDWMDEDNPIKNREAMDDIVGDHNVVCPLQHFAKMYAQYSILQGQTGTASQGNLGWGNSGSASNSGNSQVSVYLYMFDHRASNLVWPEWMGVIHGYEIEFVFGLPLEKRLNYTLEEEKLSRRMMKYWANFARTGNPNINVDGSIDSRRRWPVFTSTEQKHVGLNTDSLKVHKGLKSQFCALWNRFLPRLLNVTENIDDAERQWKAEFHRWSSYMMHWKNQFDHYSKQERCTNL
For `Cc1cc(C)cc(C[n+]2ccc(-c3cc4ccccc4o3)cc2)c1`, the Ratio IC50 was 7.
